Reference: paper PMC12040169 (PLOS Biology, 2025)

Columns and labels:
[1] = tested on: T1, C. trachomatis L2/434/Bu expressing GFP (CTL2-GFP); assay: microbe, parasite or virus in culture; design: C. trachomatis total inclusion area by high-content imaging, normalised to DMSO; conditions: Chlamydia trachomatis, HeLa, 28.5 h; total inclusion area; read-out: % of control remaining
T1 construct: L2/434/Bu GFP intracellular growth in HeLa cells
In short: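 Screening measures GFP fluorescence from the reporter strain and resorufin fluorescence for host viability, with Hoechst-based imaging of fixed cells adding inclusion area, inclusion number and nuclei count per well.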

[2] = tested on: T2, CTL2-GFP (C. trachomatis L2/434/Bu, GFP-expressing); assay: microbe, parasite or virus in culture; design: Intracellular C. trachomatis growth in HeLa cells, bulk GFP fluorescence relative to DMSO; conditions: Chlamydia trachomatis, HeLa, 28.5 h; bulk GFP, mean of 2; read-out: % of control remaining
T2 construct: L2/434/Bu, GFP-expressing
Description: MICs were calculated as described above.

in vitro [3] = assay: in vitro; design: Viability of infected HeLa host cells, resazurin conversion, bulk resorufin fluorescence relative to DMSO; conditions: human, hela cells; bulk resorufin, mean of 2
in vitro [4] = conditions: human, hela cells, % viability

Row | SMILES | activity at 1 µM [1] | activity at 5 µM [1] | activity at 10 µM [1] | activity at 1 µM [2] | activity at 5 µM [2] | activity at 10 µM [2] | viability at 28.5 h, 1 µM (in vitro [3]) | viability at 28.5 h, 5 µM (in vitro [3]) | viability at 28.5 h, 10 µM (in vitro [3]) | viability at 28.5 h, 10 µM (in vitro [4])
1 | COc1c(Br)cc2c(cc(C)n2-c2ccccc2)c1OCC(O)CNC(C)C (stereo not shown) [CBK263516] | 1.64% | 0.762% | 0.887% | 6.43% | 9.2% | 7.41% | 99.6% | 83% | 91.3% | 93.8%
2 | COc1cc(CN2CCNCC2)c2ccn(S(=O)(=O)c3cccc(Cl)c3C)c2c1 [CBK144484T] | 90.6% | 59.5% | 23.3% | 113% | 109% | 57.5% | 104% | 95.7% | 102% | 87.1%
3 | CC1=NN(c2ccccc2)C(=O)/C1=C/Nc1ccc(S(=O)(=O)Nc2nc(C)cc(C)n2)cc1 [CBK262368] | 70.2% | 28.2% | 14.1% | 46.9% | 21% | 13.7% | 96.6% | 93.9% | 96.8% | 106%
4 | CCc1nnc(NS(=O)(=O)c2ccc(N/C=C\C(=O)c3ccc4ccccc4c3)cc2)s1 [CBK263385] | 110% | 33.1% | 19.1% | 109% | 23.6% | 24% | 93.6% | 95.1% | 88.7% | 91.4%
5 | CCn1c2c(c3cc(S(=O)(=O)c4ccc(C(F)(F)F)cc4)ccc31)CCNCC2 [CBK018453C] | 133% | 58.6% | 12.8% | 143% | 54.5% | 5.22% | 94.5% | 89.4% | 91.9% | 97.5%
6 | Cc1cc2nc(-c3ccccn3)[nH]c2cc1C [CBK000122] | 97.4% | 31% | 9.06% | 129% | 36.8% | 14.3% | 94.7% | 90.3% | 89.1% | 119%
7 | CCOc1ccc(OCC)c2c1n(C)c(SC)[n+]2C [CBK005720G] | 97.5% | 27.2% | 3.38% | 139% | 64.8% | 9.96% | 90.5% | 86.2% | 83.6% | 92.1%
8 | C/C(Nc1ccc(S(=O)(=O)Nc2nccc(C)n2)cc1)=C1\C(=O)N(c2nc3ccccc3s2)N=C1C(F)(F)F [CBK263002] | 62.8% | 27.5% | 22.8% | 31.6% | 15.5% | 14.3% | 93.4% | 89.8% | 88.6% | 90.1%
9 | Cc1cc(C(=O)Nc2cccc(S(=O)(=O)N3CCOCC3)c2)sc1-c1ccccc1 [CBK268185] | 107% | 82.1% | 51.4% | 102% | 88.9% | 77.7% | 106% | 96.9% | 98.5% | 102%
10 | O=C1C(NCCO)=C(Nc2cccc(Cl)c2)C(=O)c2ccccc21 [CBK264323] | 90.7% | 34.6% | 14.8% | 93% | 48.6% | 35.5% | 102% | 98.6% | 88.4% | 91.7%
11 | O=C(Nc1cc(Cl)nc(Cl)c1)N(Cc1ccc2ccccc2c1)CC1CCNCC1 [CBK049773] | 120% | 75.2% | 44.5% | 131% | 84.2% | 61.7% | 95.5% | 95.6% | 96.4% | 105%
12 | NCc1ccc2cccc(O)c2n1 [CBK001376T] | 66.3% | 31.4% | 6.97% | 80.5% | 19.7% | 1.06% | 109% | 112% | 110% | 85.6%
13 | O=C(CSc1nnc(-c2cccnc2)o1)c1ccccc1 [CBK068446] | 67.4% | 24% | 6.22% | 74.8% | 13.2% | 1.98% | 112% | 111% | 114% | 139%
14 | O=C(NCCc1c[nH]c2ccc(Cl)cc12)c1c(F)ccc(Cl)c1F [CBK159756] | 92.7% | 39.2% | 2.12% | 103% | 35.2% | 3.33% | 98.5% | 96.7% | 94.6% | 93%
15 | Cc1ccc(S(=O)(=O)Nc2cc(SCC(=O)O)c(O)c3ccccc23)cc1 [CBK265708] | 75.1% | 34.7% | 13.4% | 92.1% | 51.3% | 33% | 103% | 99.6% | 97.8% | 87.1%
16 | COc1cc2c(cc1CNC(=O)c1cn(CCN)nn1)CCC2 [CBK306886] | 176% | 112% | 45.1% | 167% | 109% | 35.5% | 97.3% | 96.7% | 92.4% | 84.7%
17 | OC(CN1CCN(Cc2ccccc2)CC1)Cn1c2ccc(Br)cc2c2cc(Br)ccc21 (stereo not shown) [CBK262203] | 102% | 94.9% | 35% | 104% | 98.6% | 88.8% | 94.6% | 90.4% | 90% | 94.4%
18 | Cc1nc(C(=N)N)nc2ccccc12 [CBK010368C] | 60.8% | 35.9% | 41.3% | 94.1% | 66.1% | 65.1% | 98.3% | 94.3% | 88.2% | 86.3%
19 | c1ccc2c3c([nH]c2c1)C1(CCN(CCC2CCCCC2)C1)OCC3 (stereo not shown) [CBK061789] | 51.4% | 5.37% | 3.22% | 168% | 72.4% | 23.7% | 92.9% | 90% | 84.9% | 83.3%
20 | COc1ccc([C@H]2CN(Cc3ccccc3)[C@@H]3CCN(C(=O)Cc4ccsc4)C[C@H]23)cc1 [CBK285551] | 148% | 87.9% | 48.8% | 151% | 107% | 36.7% | 89.3% | 93.6% | 93% | –
21 | Cc1noc(NS(=O)(=O)c2ccc(NC(=O)COc3cccc(Br)c3)cc2)c1C [CBK264086] | 93.1% | 45.5% | 20.6% | 96.8% | 38.7% | 17.8% | 89.3% | 91.3% | 94.3% | –
22 | NC(Cc1ccccc1)CN(CC1(c2ccc(Cl)cc2)CC1)C(=O)Nc1ccc2c(c1)OCO2 (stereo not shown) [CBK002342C] | 109% | 43.5% | 54% | 211% | 102% | 98.8% | 95.3% | 95.4% | 93.5% | –
23 | COCCNc1nc2c(c(N3CCCCCC3)n1)CCNCC2 [CBK306724] | 79.4% | 0.64% | 0.424% | 76% | 7.81% | 4.81% | 98% | 97.9% | 92.9% | –
